Results published in US20030056788A1, “Partial liquid breathing of fluorocarbons” (priority 1991, published 2003).

Key:
[1] = Surface and interfacial tensions and spreading coefficients of perfluorocarbons on saline; format: physicochemical; set-up: S(o on w) spreading coefficient: unit: mN/m; conditions: T = 25 C; for γo/w (interfacial tension oil/water) / S(o on w) spreading coefficient: on saline; for S(o on w) spreading coefficient: S = γw/a − (γw/o + γo/a)
Description: The ability of a given substance to cover a measured surface area can be described by its spreading coefficient. The spreading coefficients for fluorocarbons can be expressed by the following equation:
S(o on w)=γw/a−(γw/o+γo/a)
Where S (o on w) represents the spreading coefficient; γ=interfacial tension; w/a=water/air; w/o=water/oil; and o/a=oil/air.
Fluorocarbons having spreading coefficients of at least one are particularly preferred. If the spreading coefficient is negative, the compound will tend to remain as a lens on the membrane surface. Adequate coverage of the lung surface is important for restoring oxygen and carbon dioxide transfer and for lubricating the lung surfaces to minimize further pulmonary trauma.
Each perfluorocarbon tested is provided together with its molecular weight and the specific variables that are used to calculate the spreading coefficient S (o on w). The perfluorocarbons reported are PFOB, perfluorotributylamine (FC-17), perfluorodecalin (APF-140), dimethyl perfluorodecalin (APF-175), trimethyl decalin (APF-200), perfluoroperhydrophenanthrene (APF-215), pentamethyl decalin (APF-240), and octamethyl decalin (APF-260).

[2] = Vapor pressure of fluorocarbons
[3] = system: rabbits following lung lavage to remove endogenous surfactant; experiment: Partial liquid ventilation with PFOB in rabbit model of respiratory insufficiency induced by lung lavage; format: in vivo, New Zealand rabbits; conditions: rabbits after lung lavage
Method: The following examples provide information relating to the effect of PFOB treatment on respiratory insufficiency in an experimental rabbit model. The general protocol for partial liquid ventilation of the rabbits is described below.
New Zealand rabbits weighing between 2.8 and 3.0 kg were anesthetized with 50 mg/kg of […] sodium iv and a cannula was inserted through a tracheotomy midway along the trachea with its tip proximal to the carina. Ventilation with a Servo ventilator 900C (Siemens-Elema, Sweden) was initiated using pure oxygen and zero end-expiratory pressure with a constant tidal volume of 12 ml/kg, frequency of 30/min and inspiratory time of 35%. Anesthesia was maintained with additional doses of pentobarbital, as required, and pancuronium bromide was administered as an intravenous bolus (0.1 mg/kg) and followed by a continuous infusion (0.1 mg/kg/hr) for muscle paralyzation. A solution of 5% dextrose and 0.45% NaCl was administered continuously at a rate of 10 ml/kg/hr as a maintenance fluid. A heating pad maintained core temperature at 37±1° C., monitored by an esophageal thermistor (Elektroalboratoriet, Copenhagen).
Left femoral artery and vein were each cannulated with polyvinyl catheters for arterial and central venous pressure recording and blood sampling. A special indwelling catheter (Mikro-pO2-Messkatheter, Licox) was inserted into the right femoral artery for continuous oxygen pressure monitoring (Licox, GMS, Germany). Arterial blood gas and Hb (hemoglobin) measurements were made by Osm-2 Hemoximeter and ABL-330 (Radiometer Copenhagen). Lung mechanics and end-tidal CO2 were measured by means of Lung Mechanics Calculator 940 (Siemens-Elema, Sweden) and CO2 Analyzer 930 (Siemens-Elema, Sweden), respectively. Intravascular pressure monitoring was made by using a Statham P23XL transducer (Spectramed, USA) and all tracings including ECG were recorded by a Sirecust 1280 recorder (Siemens).
After the control observations were made, lung lavage with 30 ml/kg of warm saline (37° C.) was performed to induce respiratory insufficiency. After the first lavage, positive end expiratory pressure (PEEP) was increased to 6 cmH2O and lung lavages were repeated to get an arterial pO2 below 100 mmHg with the initial ventilatory settings (between 4-6 lavages). […]
After respiratory insufficiency was induced, PFOB liquid was administered through the tracheal cannula into the animal's lungs with incremental doses of 3 ml/kg up to a total volume of 15 ml/kg. Animals were ventilated for 15 minutes after each dose of PFOB instillation with the same ventillatory settings as mentioned above and thereafter arterial blood gases, cardiocirculatory parameters and pulmonary mechanics were measured. […]

Molecule | γo/a (interfacial tension oil/air) [1] | γo/w (interfacial tension oil/water) [1] | S(o on w) spreading coefficient [1] | other results
trimethyl decalin [APF-200] | 21.4 mN/m | 55.9 mN/m | −5.3 | 
FC(F)(F)C(F)(F)C(F)(F)C(F)(F)C(F)(F)C(F)(F)Br [1-bromotridecafluorohexane] |  |  |  | vapor pressure (in words) [2]: relatively high vapor pressures
dimethyl perfluorodecalin [APF-175] | 20.7 mN/m | 55.9 mN/m | −4.6 | 
octamethyl decalin [APF-260] | 22.4 mN/m | 56.1 mN/m | −6.5 | 
FC1(F)C(F)(F)C(F)(F)C2(F)C(F)(F)C(F)(F)C(F)(F)C(F)(F)C2(F)C1(F)F (stereo not drawn) [APF-140, perfluorodecalin] | 18.2 mN/m | 55.3 mN/m |  | 
FC1(F)C(F)(F)C(F)(F)C2(F)C(F)(C1(F)F)C(F)(F)C(F)(F)C1(F)C(F)(F)C(F)(F)C(F)(F)C(F)(F)C12F (stereo not drawn) [APF-215, perfluoroperhydrophenanthrene] | 21.6 mN/m | 56.0 mN/m | −5.6 | 
FC(F)(F)C(F)(F)C(F)(F)C(F)(F)N(C(F)(F)C(F)(F)C(F)(F)C(F)(F)F)C(F)(F)C(F)(F)C(F)(F)C(F)(F)F [FC-47, perfluorotributylamine] | 17.9 mN/m | 55.1 mN/m |  | 
FC(F)(F)C(F)(F)C(F)(F)C(F)(F)C(F)(F)C(F)(F)C(F)(F)C(F)(F)Br [PFOB, 1-bromo-heptadecafluoro-octane] | 18.0 mN/m | 51.3 mN/m |  | arterial oxygen pressure as percent of original (pre-lavage) value ([3]; 15 ml/kg PFOB intratracheal, n = 6): 83%; mean arterial carbon dioxide tension (in words) ([3]; after PFOB administration, post-lavage level 48.7 mmHg): decreased; mean airway pressure (in words) ([3]; increasing volumes of PFOB): decreased mean airway pressure; arterial oxygen tension (in words) ([3]; increasing volumes of PFOB 3-15 ml/kg intratracheal, compared to saline treated controls): significantly improved the arterial oxygen tension; vapor pressure ([2]; 37° C.): 14 torr
pentamethyl decalin [APF-240] | 22.6 mN/m | 56.3 mN/m | −6.9 | 
